# Data: the NIST ThermoML archive (doi:10.1021/je800110r)
# ± gives the expanded uncertainty stated by the source.
# Conditions: 283.15 K, Liquid, Vibrating tube method
smiles,measurement,setting,value
CCCCCCCCCC [decane],mass density,3625 kPa,740.1 ± 2 kg/m3
same,mass density,3634 kPa,740.1 ± 2 kg/m3
same,mass density,3651 kPa,740.3 ± 2 kg/m3
same,mass density,3666 kPa,740.1 ± 2 kg/m3
same,mass density,3675 kPa,740.1 ± 2 kg/m3
same,mass density,3689 kPa,740 ± 2 kg/m3
same,mass density,3701 kPa,740.1 ± 2 kg/m3
same,mass density,3713 kPa,740.1 ± 2 kg/m3
same,mass density,3724 kPa,740.1 ± 2 kg/m3
same,mass density,3735 kPa,740.2 ± 2 kg/m3
same,mass density,3748 kPa,740.2 ± 2 kg/m3
same,mass density,3759 kPa,740 ± 2 kg/m3
same,mass density,3774 kPa,740.2 ± 2 kg/m3
same,mass density,3789 kPa,740.1 ± 2 kg/m3
same,mass density,3800 kPa,740.1 ± 2 kg/m3
same,mass density,3899 kPa,740.2 ± 2 kg/m3
same,mass density,3917 kPa,740.3 ± 2 kg/m3
same,mass density,3930 kPa,740.1 ± 2 kg/m3
same,mass density,3945 kPa,740.3 ± 2 kg/m3
same,mass density,3957 kPa,740.3 ± 2 kg/m3
same,mass density,3968 kPa,740.3 ± 2 kg/m3
same,mass density,3982 kPa,740.4 ± 2 kg/m3
same,mass density,3992 kPa,740.4 ± 2 kg/m3
same,mass density,4007 kPa,740.4 ± 2 kg/m3
same,mass density,4017 kPa,740.3 ± 2 kg/m3
same,mass density,4031 kPa,740.3 ± 2 kg/m3
same,mass density,4042 kPa,740.3 ± 2 kg/m3
same,mass density,4055 kPa,740.3 ± 2 kg/m3
same,mass density,4085 kPa,740.4 ± 2 kg/m3
same,mass density,4096 kPa,740.2 ± 2 kg/m3
same,mass density,4114 kPa,740.5 ± 2 kg/m3
same,mass density,4129 kPa,740.3 ± 2 kg/m3
same,mass density,4147 kPa,740.4 ± 2 kg/m3
same,mass density,4160 kPa,740.5 ± 2 kg/m3
same,mass density,4179 kPa,740.5 ± 2 kg/m3
same,mass density,4197 kPa,740.4 ± 2 kg/m3
same,mass density,4212 kPa,740.5 ± 2 kg/m3
same,mass density,4229 kPa,740.4 ± 2 kg/m3
same,mass density,4247 kPa,740.5 ± 2 kg/m3
same,mass density,4263 kPa,740.4 ± 2 kg/m3
same,mass density,4277 kPa,740.5 ± 2 kg/m3
same,mass density,4292 kPa,740.5 ± 2 kg/m3
same,mass density,4306 kPa,740.6 ± 2 kg/m3
same,mass density,4321 kPa,740.4 ± 2 kg/m3
same,mass density,4333 kPa,740.6 ± 2 kg/m3
same,mass density,4349 kPa,740.5 ± 2 kg/m3
same,mass density,4362 kPa,740.6 ± 2 kg/m3
same,mass density,4394 kPa,740.6 ± 2 kg/m3
same,mass density,4410 kPa,740.5 ± 2 kg/m3
same,mass density,4424 kPa,740.5 ± 2 kg/m3
same,mass density,4437 kPa,740.5 ± 2 kg/m3
same,mass density,4455 kPa,740.7 ± 2 kg/m3
same,mass density,4468 kPa,740.6 ± 2 kg/m3
same,mass density,4484 kPa,740.7 ± 2 kg/m3
same,mass density,4499 kPa,740.7 ± 2 kg/m3
same,mass density,4514 kPa,740.7 ± 2 kg/m3
same,mass density,4533 kPa,740.6 ± 2 kg/m3
same,mass density,4549 kPa,740.8 ± 2 kg/m3
same,mass density,4565 kPa,740.7 ± 2 kg/m3
same,mass density,4579 kPa,740.7 ± 2 kg/m3
same,mass density,4603 kPa,740.8 ± 2 kg/m3
same,mass density,4628 kPa,740.7 ± 2 kg/m3
same,mass density,4648 kPa,740.8 ± 2 kg/m3
same,mass density,4667 kPa,740.7 ± 2 kg/m3
same,mass density,4770 kPa,740.8 ± 2 kg/m3
same,mass density,4791 kPa,740.9 ± 2 kg/m3
same,mass density,4811 kPa,740.9 ± 2 kg/m3
same,mass density,4835 kPa,740.9 ± 2 kg/m3
same,mass density,5291 kPa,741.2 ± 2 kg/m3
same,mass density,5334 kPa,741.3 ± 2 kg/m3
same,mass density,5356 kPa,741.3 ± 2 kg/m3
same,mass density,5377 kPa,741.3 ± 2 kg/m3
same,mass density,5399 kPa,741.3 ± 2 kg/m3
same,mass density,5421 kPa,741.4 ± 2 kg/m3
same,mass density,5444 kPa,741.4 ± 2 kg/m3
same,mass density,5463 kPa,741.4 ± 2 kg/m3
same,mass density,5486 kPa,741.3 ± 2 kg/m3
same,mass density,5505 kPa,741.3 ± 2 kg/m3
same,mass density,5529 kPa,741.5 ± 2 kg/m3
same,mass density,5549 kPa,741.4 ± 2 kg/m3
same,mass density,5573 kPa,741.5 ± 2 kg/m3
same,mass density,5624 kPa,741.5 ± 2 kg/m3
same,mass density,5644 kPa,741.5 ± 2 kg/m3
same,mass density,5662 kPa,741.5 ± 2 kg/m3
same,mass density,5674 kPa,741.4 ± 2 kg/m3
same,mass density,5686 kPa,741.6 ± 2 kg/m3
same,mass density,5700 kPa,741.6 ± 2 kg/m3
same,mass density,5719 kPa,741.6 ± 2 kg/m3
same,mass density,5736 kPa,741.5 ± 2 kg/m3
same,mass density,5778 kPa,741.6 ± 2 kg/m3
same,mass density,5790 kPa,741.5 ± 2 kg/m3
same,mass density,5806 kPa,741.6 ± 2 kg/m3
same,mass density,5819 kPa,741.7 ± 2 kg/m3
same,mass density,5838 kPa,741.6 ± 2 kg/m3
same,mass density,5851 kPa,741.6 ± 2 kg/m3
same,mass density,5852 kPa,741.7 ± 2 kg/m3
same,mass density,5870 kPa,741.7 ± 2 kg/m3
same,mass density,5887 kPa,741.7 ± 2 kg/m3
same,mass density,5909 kPa,741.6 ± 2 kg/m3
same,mass density,5920 kPa,741.7 ± 2 kg/m3
same,mass density,5926 kPa,741.7 ± 2 kg/m3
same,mass density,5930 kPa,741.8 ± 2 kg/m3
same,mass density,5942 kPa,741.8 ± 2 kg/m3
same,mass density,5960 kPa,741.7 ± 2 kg/m3
same,mass density,5977 kPa,741.8 ± 2 kg/m3
same,mass density,5991 kPa,741.8 ± 2 kg/m3
same,mass density,6008 kPa,741.7 ± 2 kg/m3
same,mass density,6025 kPa,741.8 ± 2 kg/m3
same,mass density,6043 kPa,741.7 ± 2 kg/m3
same,mass density,6063 kPa,741.7 ± 2 kg/m3
same,mass density,6081 kPa,741.8 ± 2 kg/m3
same,mass density,6102 kPa,741.8 ± 2 kg/m3
same,mass density,6122 kPa,741.9 ± 2 kg/m3
same,mass density,6142 kPa,741.8 ± 2 kg/m3
same,mass density,6161 kPa,741.9 ± 2 kg/m3
same,mass density,6626 kPa,742.2 ± 2 kg/m3
same,mass density,6649 kPa,742.2 ± 2 kg/m3
same,mass density,6666 kPa,742.3 ± 2 kg/m3
same,mass density,6683 kPa,742.2 ± 2 kg/m3
same,mass density,6712 kPa,742.2 ± 2 kg/m3
same,mass density,6729 kPa,742.3 ± 2 kg/m3
same,mass density,6755 kPa,742.2 ± 2 kg/m3
same,mass density,6775 kPa,742.3 ± 2 kg/m3
same,mass density,6805 kPa,742.3 ± 2 kg/m3
same,mass density,6826 kPa,742.4 ± 2 kg/m3
same,mass density,6843 kPa,742.2 ± 2 kg/m3
same,mass density,6861 kPa,742.4 ± 2 kg/m3
same,mass density,6877 kPa,742.3 ± 2 kg/m3
same,mass density,6905 kPa,742.4 ± 2 kg/m3
same,mass density,6933 kPa,742.4 ± 2 kg/m3
same,mass density,6948 kPa,742.3 ± 2 kg/m3
same,mass density,6967 kPa,742.4 ± 2 kg/m3
same,mass density,6996 kPa,742.4 ± 2 kg/m3
same,mass density,7021 kPa,742.3 ± 2 kg/m3
same,mass density,7041 kPa,742.4 ± 2 kg/m3
same,mass density,7058 kPa,742.5 ± 2 kg/m3
same,mass density,7077 kPa,742.5 ± 2 kg/m3
